Legend:
[1] = Retention index (RI) measurement by GC/MS; assay type: physicochemical; settings: HP-5 MS column (95% dimethylpolysiloxane/5% phenyl-methylpolysiloxane), 1000 ppm in ethanol, n-alkane mixture C6-C35, linear method
Description: Menthol (L-Menthol, manufactured by Takasago International Corporation) and cooling sensation agents (the abovementioned COOLACT® 370, COOLACT® 5, COOLACT® 10, COOLACT® 20, Symcool® WS-5, and Symcool® WS-23) were respectively diluted by adding ethanol to obtain diluted solutions of menthol and each cooling sensation agent diluted to 1000 ppm in ethanol.
Gas chromatography with a mass spectrometer (GC/MS) was then performed on the abovementioned diluted solutions thus obtained.
• Apparatus: 7890B/5977B GC/MSD, manufactured by Agilent Technologies GC conditions • Column: HP-5 MS (manufactured by Agilent Technologies) • Inner diameter 0.25 mm×length 30 m, film thickness 0.25 μm • Injection volume: 1 μL • Injection mode: Split (10:1) • Injection port temperature: 270° C. • Septum purge flow: 5 ml/minute • Carrier gas: Helium (He) • Column flow rate: 1 mL/minute (constant flow mode) • Oven temperature: From 40° C. (3 minutes) to 280° C. (20 minutes) at a rate of 4° C./minute • Transfer line temperature: 280° C. MS conditions • Solvent wait time: 4 minutes • Ionization method: Electron impact ionization (EI), 70 eV • Ion source temperature: 230° C. • Quadrupole temperature: 150° C. • Measurement mode: Scan • MS scan range: m/z 26-450 • Threshold: 50 • Sampling rate: 2
The chromatogram retention index (RI) obtained by the abovementioned GC/MS analysis was calculated by the following method.
The RI of menthol or respective cooling agent was calculated by a linear method on the basis of an n-alkane mixture ranging from n-hexane (C6, RI: 600) to n-pentatriacontane (C35, RI: 3500) Note that the n-alkane mixture used in calculating the RI is not limited thereto.

[2] = Preliminary study of cooling sensation intensity; assay type: in vivo; settings: similar contents
From the text: Whereas the content of the methyl menthol derivative or cooling agent other than a methyl menthol derivative as a cooling ingredient was 2000 ppm in the abovementioned Examples 1-3 and in Comparative Examples 2 and 4, the content of the cooling ingredient menthol in the abovementioned Comparative Examples 1 and 3 was set to 5,000 ppm, thus adjusting the cooling sensation intensity as much as possible to facilitate comparison, in order to assess cooling sensation intensity in the present sensory evaluation.

[3] = Storage resistance by GC/MS: residual rate in tobacco filler in an open system; assay type: physicochemical; settings: 5,000 ppm in tobacco filler, open system on a tray, 5 days in an incubator, internal standard quinoline
Description: Solutions were prepared by dissolving menthol and other cooling agents (the abovementioned COOLACT® 370 and Symcool® WS-23) respectively through addition of ethanol thereto. Each solution thus obtained was added to the tobacco filler portion of a combustion smoking article, using a microsyringe (MS-50, Ito Microsyringe, manufactured by Ito Seisakusho), such that that the content of menthol or other cooling sensation agent was 5,000 ppm relative to the weight of the tobacco, and the samples immediately after addition were considered to be “pre-storage cigarette samples.” Each solution thus obtained was also added to the tobacco filler portion of a heat-not-burn smoking article (a tobacco stick comprising a tobacco filler portion and a filter portion), using the abovementioned microsyringe, such that that the menthol or other cooling sensation agent content was 5,000 ppm relative to the weight of the tobacco therein, and the samples immediately after addition were considered to be “pre-storage tobacco stick samples.” The cigarettes and tobacco sticks injected with menthol or other cooling sensation agent were then placed on a tray (DT-1 disposable tray, manufactured by As One), stored for 5 days in an incubator (SCI-13 compact incubator, manufactured by Shibata), and were respectively considered to be “post-storage cigarette samples” and “post-storage tobacco stick samples.”
In addition, 1.0 g of quinoline was precisely weighed out as an internal standard, and diluted to 1 L with methanol to serve as an extraction solvent.
The pre-storage cigarette samples, pre-storage tobacco stick samples, post-storage cigarette samples, and post-storage tobacco stick samples obtained as described above then underwent the following treatment. • The tobacco filler portion was removed from each sample and placed in a screw tube, and 10 mL of the extraction solvent, prepared as described above, was added. The screw tubes were then shaken at 200 rpm for 20 minutes, and, after having been left to stand overnight, shaken again at 200 rpm for 20 minutes to obtain tobacco filler portion extract samples. The extract samples obtained from the pre-storage cigarette samples, pre-storage tobacco stick samples, post-storage cigarette samples, and post-storage tobacco stick samples were respectively considered to be “pre-storage cigarette extract samples,” “pre-storage tobacco stick extract samples,” “post-storage cigarette extract samples,” and “post-storage tobacco stick extract samples.”
The extract samples thus obtained were each collected using a syringe (25 mL, SS-02SZ, manufactured by Terumo Corporation) and filtered through a filter (0.45 μm, Prem Syringe Filter, RC, manufactured by Agilent Technologies), and the liquids obtained after filtration were respectively considered to be extract samples for pre-storage cigarette analysis, extract samples for pre-storage tobacco stick analysis, extract samples for post-storage cigarette analysis, and extract samples for post-storage tobacco stick analysis.
The target ions and qualifier ions shown below were selected for the respective cooling sensation agents. A target ion and qualifier ion were also selected for quinoline, used as the internal standard. • Menthol (target ion: m/z=95.1, qualifier ion: m/z=71.0, 81.1) • […] (target ion: m/z=114.0, qualifier ion: m/z=57.0, 102.0) • COOLACT® 370 (target ion: m/z=211.2, qualifier ion: m/z=97.0, 168.1) • Quinoline (target ion: m/z=129.1, qualifier ion: m/z=76.0, 102.0)
• Column: HP-5 MS (manufactured by Agilent Technologies), inner diameter 0.25 mm×length 30 m, film thickness 0.25 μm • Injection volume: 1 μL • Injection mode: Split (10:1) • Injection port temperature: 270° C. • Septum purge flow rate: 5 mL/minute • Carrier gas: Helium (He) • Column flow rate: 1 ml/minute (constant flow mode) • Oven: 40° C. (for 3 minutes) to 280° C. (for 10 minutes) at 10° C./minute […]

[4] = Storage resistance by GC/MS: migration from tobacco filler to filter in a closed system; assay type: physicochemical; settings: tobacco sticks, 2,500, 5,000 and 10,000 ppm
Description: A solution was prepared by dissolving a methyl menthol derivative (the abovementioned COOLACT® 370) through addition of methanol thereto. The solution thus obtained was added using the microsyringe described above to the tobacco filler of portion of an unheated smoking article (a tobacco stick comprising a tobacco filler portion and a filter portion), using the abovementioned microsyringe, such that the methyl menthol derivative content was 2,500 ppm, 5,000 ppm, or 10,000 ppm relative to the weight of tobacco therein, and the samples immediately after addition were considered to be “pre-storage tobacco stick samples.” Each tobacco stick injected with the methyl menthol derivative was placed in a Lami-Zip bag (AL-5, manufactured by Seisannipponsha), and left in an incubator (an SCI-13 compact incubator, manufactured by Shibata) for 5 days to provide a “post-storage tobacco stick sample.”
The pre-storage and post-storage tobacco stick samples obtained in the abovementioned manner underwent the following processing. • The tobacco filler portion and filter portion were removed from each sample and placed in a separate screw tube, and 10 mL of methanol were added. […]

[5] = cigarettes (combustion smoking articles)
[6] = tobacco sticks (heat-not-burn smoking articles)

Row | SMILES | Retention index (RI) [1] | Cooling sensation intensity compared with methyl menthol derivatives and other cooling agents [2] | Residual rate [3, 5] [%] | Residual rate [3, 6] [%] | Migration from tobacco filler portion to filter portion, post-storage ([4]; closed system (Lami-Zip bag), 5 days in an incubator, FIGS. 10-12) | Migration from tobacco filler portion to filter portion, pre-storage ([4]; immediately after addition, GC/MS total ion chromatograms, FIGS. 7-9)
1 | CC(O)CC(=O)O[C@@H]1C[C@H](C)CC[C@H]1C(C)C (stereo partly drawn) [COOLACT® 20, L-menthyl-3-hydroxybutyrate] | 1611 |  |  |  |  | 
2 | CC(C)[C@@H]1CC[C@@H](C)C[C@H]1OCCO [COOLACT® 5, 2-L-menthoxyethanol] | 1414 |  |  |  |  | 
3 | CC1CCC(C(C)C)C(OCC(O)CO)C1 [COOLACT® 10, 3-L-menthoxypropane-1,2-diol] | 1674 |  |  |  |  | 
4 | CCOC(=O)CNC(=O)C1CC(C)CCC1C(C)C (stereo not shown) [Symcool® WS-5, ethyl-2-(p-menthane-3-carboxamido)acetate] | 1942 |  |  |  |  | 
5 | CC1CCC(C(C)C)C(O)C1 (stereo not shown) [Menthol] | 1173 | weaker cooling sensation intensity | 15.9 | 10.4 |  | 
6 | CC(C)C1CCC(C)(C)CC1C(=O)NCC(O)c1ccccc1 (stereo not shown) [COOLACT® 370, N-(2-hydroxy-2-phenylethyl)-2-isopropyl-5,5-dimethylcyclohexane-1-carboxamide] | 2477 |  | 98.5 | 100 | had not migrated from the tobacco filler portion to the filter portion | did not migrate from the tobacco filler portion to the filter portion
7 | CNC(=O)C(C)(C(C)C)C(C)C [Symcool® WS-23, 2-isopropyl-N,2,3-trimethylbutyramide] | 1287 |  | 33.5 | 50.2 |  | 

— patent US20260206828A1, “CONSTITUENT MEMBER PERFUMED BY FLAVOR RAW MATERIAL AND SMOKING ARTICLE” (Japan Tobacco Inc., priority 2022, published 2026)
